Consider 23 molecules from ChEMBL document CHEMBL3244119, “Synthesis and hypoglycemic activity of S-acyl derivatives of 3-mercaptopicolinic acid” (J Med Chem, 1977).

Data set [1] can be described thus: Half life of the compound at pH 6. Format: physicochemical.
For data set [2], the system named is Rattus norvegicus. Put plainly: Hypoglycemic activity in 48 hrs fasted rat assessed as reduction in glucose level at 125 mg/kg, po measured after 4 hrs. In kind it is functional. Set-up: scale not given: the % may be the effect or the level left.
Data set [3] has as its system Rattus norvegicus. Put plainly: Hypoglycemic activity in 48 hrs fasted rat assessed as reduction in glucose level at 300 mg/kg, po measured after 2 hrs. In kind it is functional. Also on record: scale not given: the % may be the effect or the level left.
A short description of data set [4]: Half life of the compound at pH 8. In kind it is physicochemical.
Data set [5] deals with Rattus norvegicus. Description: Hypoglycemic activity in 48 hrs fasted rat assessed as reduction in glucose level at 125 mg/kg, po measured after 1 hr. Also on record: scale not given: the % may be the effect or the level left. In kind it is functional.
Data set [6] is described as follows: Stability of the compound assessed as rate of 3-mercaptopicolinic acid formation at 10 mg at pH 8 by DTNB method. Format: physicochemical.
The subject of data set [7] is Rattus norvegicus. Description: Hypoglycemic activity in 48 hrs fasted rat assessed as reduction in glucose level at 300 mg/kg, po measured after 4 hrs. Format: functional. Also on record: scale not given: the % may be the effect or the level left.
Data set [8] concerns Rattus norvegicus. Put plainly: Hypoglycemic activity in 48 hrs fasted rat assessed as reduction in glucose level at 300 mg/kg, po measured after 1 hr. Also on record: scale not given: the % may be the effect or the level left. Format: functional.
Data set [9] concerns Rattus norvegicus. Description: Hypoglycemic activity in 48 hrs fasted rat assessed as reduction in glucose level at 125 mg/kg, po measured after 2 hrs. Also on record: scale not given: the % may be the effect or the level left. Format: functional.
Data set [10] in a line: Stability of the compound assessed as rate of 3-mercaptopicolinic acid formation at 10 mg at pH 6 by DTNB method. Format: physicochemical.
The nature of data set [11]: Stability of the compound in 3 N HCl-ethanol […] measured after refluxing for 2.5 hrs by TLC. Format: physicochemical. Particulars: buffer.
Data set [12] can be described thus: Stability of the compound in 3 N HCl at room temperature after 3.5 hrs by TLC. Format: physicochemical. Particulars: buffer.
The subject of data set [13] is Rattus norvegicus. Description: Hypoglycemic activity in 48 hrs fasted rat assessed as reduction in glucose level at 150 mg/kg, po measured after 1 hr. Format: functional. Set-up: scale not given: the % may be the effect or the level left.
Data set [14] has as its system Rattus norvegicus. Put plainly: Hypoglycemic activity in 48 hrs fasted rat assessed as reduction in glucose level at 150 mg/kg, po measured after 4 hrs. Set-up: scale not given: the % may be the effect or the level left. In kind it is functional.
Data set [15] concerns Rattus norvegicus. Put plainly: Hypoglycemic activity in 48 hrs fasted rat assessed as reduction in glucose level at 150 mg/kg, po measured after 2 hrs. Format: functional. Set-up: scale not given: the % may be the effect or the level left.
The nature of data set [16]: Stability of the compound assessed as compound remaining at equilibrium at 10 mg at pH 6 by DTNB method. In kind it is physicochemical.
In data set [17] the test system is Rattus norvegicus. Description: Hypoglycemic activity in 48 hrs fasted rat assessed as reduction in glucose level at 250 mg/kg, po measured after 1 hr. Format: functional. Set-up: scale not given: the % may be the effect or the level left.
Data set [18] deals with Rattus norvegicus. Description: Hypoglycemic activity in 48 hrs fasted rat assessed as reduction in glucose level at 250 mg/kg, po measured after 2 hrs. Format: functional. Set-up: scale not given: the % may be the effect or the level left.
The subject of data set [19] is Rattus norvegicus. Put plainly: Hypoglycemic activity in 48 hrs fasted rat assessed as reduction in glucose level at 250 mg/kg, po measured after 4 hrs. Format: functional. Also on record: scale not given: the % may be the effect or the level left.
Data set [20] has as its system Rattus norvegicus. Put plainly: Hypoglycemic activity in 48 hrs fasted rat assessed as reduction in glucose level at 200 mg/kg, po measured after 4 hrs. In kind it is functional. Set-up: scale not given: the % may be the effect or the level left.
Data set [21] deals with Rattus norvegicus. Description: Hypoglycemic activity in 48 hrs fasted rat assessed as reduction in glucose level at 200 mg/kg, po measured after 1 hr. In kind it is functional. Also on record: scale not given: the % may be the effect or the level left.
For data set [22], the system named is Rattus norvegicus. Description: Hypoglycemic activity in 48 hrs fasted rat assessed as reduction in glucose level at 200 mg/kg, po measured after 2 hrs. Also on record: scale not given: the % may be the effect or the level left. In kind it is functional.

For orientation: half-life means how long it takes for the measured level to halve.

With `CC(C)(C)C(=O)Sc1cccnc1C(=O)O`, the half-life in [1] is 61.1 h; in data set [4], 115 h. The Activity in [2] was 52%; in data set [3], -43%; in [5], 21%; in data set [6] it was 0.0114 h⁻¹; in data set [7], -70%; in data set [8], -20%. In addition, the figures for the Activity in data set [9] and in data set [10] were 42% and 0.006 h⁻¹, respectively.
With `O=C(Sc1cccnc1C(=O)O)c1ccccc1`, the half-life was 21.1 h in data set [1] and 60.1 h in data set [4]. The Activity in [3] is -42%; in [6], 0.0329 h⁻¹; in data set [7] it was -56%; in data set [8], -27%; in data set [10], 0.0115 h⁻¹. For the same molecule, the Stability result in [11] and in [12] was “Stable” in each case.
Take `O=C(Sc1cccnc1C(=O)O)c1cccc(Cl)c1`: the half-life is 4.7 h in [1] and 14.8 h in data set [4]. Moreover, the Activity in data set [3] is -32%; in data set [6], 0.148 h⁻¹; in [7] it was -42%; in data set [8] it was -27%; in data set [10] it was 0.0468 h⁻¹.
As for `O=C(Sc1cccnc1C(=O)O)c1ccccc1Cl`, the figures for the half-life in data set [1] and in [4] were 27.2 h and 75.8 h, respectively. The Activity was -39% in [3]; 0.0255 h⁻¹ in [6]; -40% in data set [7]; -35% in data set [8]; 0.0091 h⁻¹ in data set [10].
`O=C(Sc1cccnc1C(=O)O)c1ccc(Cl)cc1`: the half-life is 7.9 h in data set [1] and 26.6 h in [4]. Further, the Activity in data set [2] is 40%; in data set [3] it was -34%; in data set [5], 12%; in [6], 0.0879 h⁻¹; in [7], -57%; in data set [8], -43%. Besides, the Activity in [9] is 34%; in data set [10], 0.0261 h⁻¹.
Turning to `O=C(Sc1cccnc1C(=O)O)c1cccc(C(F)(F)F)c1`, the half-life is 3.9 h in [1] and 10 h in data set [4]. Also, the Activity in [3] is -38%; in [6], 0.179 h⁻¹; in data set [7] it was 45%; in data set [8] it was -35%; in [10], 0.0695 h⁻¹.
As for `CN(C)c1ccc(C(=O)Sc2cccnc2C(=O)O)cc1`, the results for the Activity in data set [13], in data set [14] and in [15] were -12%, -8% and -2%, respectively.
As for `O=C(O)c1ncccc1S`, the values for the Activity in data set [13], in [14] and in data set [15] were -32%, -56% and -44%, respectively.
As to `O=C(Sc1cccnc1C(=O)O)c1ccc(C(F)(F)F)cc1`, the half-life in data set [1] is 3 h; in data set [4], 10.1 h. The Activity was 32% in [2]; -54% in data set [3]; 28% in data set [5]; 0.231 h⁻¹ in data set [6]; -75% in data set [7]; -26% in data set [8]. Also, the Activity came out at 41% in data set [9] and 0.0688 h⁻¹ in data set [10].
For `COc1cccc(C(=O)Sc2cccnc2C(=O)O)c1`, the half-life in [1] is 11.9 h; in data set [4], 63.7 h. For the same molecule, the Activity in [3] was -24%; in [6], 0.0583 h⁻¹; in data set [7] it was -30%; in [8], -15%; in data set [10], 0.0109 h⁻¹.
With `COc1ccc(C(=O)Sc2cccnc2C(=O)O)cc1`, the half-life in [1] was 43.9 h; in data set [4], 182 h. The Activity was -25% in data set [3]; 0.0158 h⁻¹ in [6]; 19% in [7]; 16% in [8]; 0.0038 h⁻¹ in [10].
In the case of `Cc1ccc(C(=O)Sc2cccnc2C(=O)O)cc1`, the figures for the half-life in data set [1] and in data set [4] were 25.6 h and 80.1 h, respectively. Also, the Activity in data set [3] was -16%; in [6], 0.0271 h⁻¹; in data set [7], -4%; in data set [8] it was -21%; in data set [10], 0.0087 h⁻¹.
For `O=C(Sc1cccnc1C(=O)O)c1ccc(F)cc1`, the values for the half-life in data set [1] and in data set [4] were 12.1 h and 111 h, respectively. Moreover, the Activity was -47% in data set [3]; 0.0575 h⁻¹ in data set [6]; -44% in data set [7]; -29% in [8]; 0.0062 h⁻¹ in data set [10].
On to `O=C(Sc1cccnc1C(=O)O)c1ccc([N+](=O)[O-])cc1`, for which the half-life in data set [1] is 1.4 h; in data set [4], 4.7 h. Further, the Stability in data set [16] came to 24.3 mol%. Further, the Activity in data set [3] worked out at 0%; in [6], 0.513 h⁻¹; in [7], 12%; in data set [8] it was 0%; in data set [10], 0.147 h⁻¹.
Turning to `N#Cc1ccc(C(=O)Sc2cccnc2C(=O)O)cc1`, the Activity in data set [13] was -18%; in data set [14] it was 0%; in data set [15] it was -16%.
Taken in the same sequence, the figures for `COC(=O)c1ccc(C(=O)Sc2cccnc2C(=O)O)cc1` were -17%, 1% and -20%.
For the molecule `NS(=O)(=O)c1ccc(C(=O)Sc2cccnc2C(=O)O)cc1`, the Activity in data set [13] is 20%; in [14] it was 3%; in data set [15], -16%.
On to `NC(=O)c1ccc(C(=O)Sc2cccnc2C(=O)O)cc1`, for which the Activity in data set [13] is listed as -22%; in [14], -25%; in [15], -6%.
On to `CC(=O)Nc1ccc(C(=O)Sc2cccnc2C(=O)O)cc1`, for which the Activity is recorded as -18% in [13], 7% in [14] and -14% in data set [15].
For the molecule `O=C(Nc1ccc(C(=O)Sc2cccnc2C(=O)O)cc1)c1ccccc1`, the values for the Activity in data set [13], in [14] and in data set [15] were -20%, -4% and -20%, respectively.
Take `CCC(=O)Sc1cccnc1C(=O)O`: the Activity in data set [17] stood at 22%; in data set [18] it was 52%; in data set [19], 55%.
In the case of `CCCCCCCCCCC(=O)Sc1cccnc1C(=O)O`, the Activity in [13] was -14%; in data set [14] it was -9%; in [15] it was 3%.
`CCCCNC(=O)NS(=O)(=O)c1ccc(C)cc1` [TOLBUTAMIDE]: the figures for the Activity in data set [20], in [21] and in data set [22] were 48%, 28% and 47%, respectively.
